The results in this text go back to US20250353873A1, “COMPOUNDS AND METHODS FOR MODULATING APOE EXPRESSION” (Ionis Pharmaceuticals, Inc., priority 2024, published 2025).

The subject of series [1] is human APOE RNA. The experiment in a line: Dose-dependent inhibition of human APOE RNA in HepG2 cells, electroporation, 50,000 cells per well, RT-PCR normalized to GAPDH (Example 4, Tables 8-10). Format: cell-based. The following applies: HepG2, electroporation, 24-hour treatment. The method, boiled down:
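Readout is percent APOE RNA versus untreated controls, measured by RT-PCR (primer probe set RTS3073) and normalized to human GAPDH. Modified oligonucleotides were delivered by electroporation at varying doses into HepG2 cells plated at 50,000 per well.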

Series [2] concerns human APOE RNA. The experiment in a line: Activity in APOE C57BL/6NTac-Apoeem7250 knock-in mice, single ICV bolus, 4 weeks (Example 10). Format: in vivo. The following applies: single ICV bolus 300 μg, 4 weeks post treatment, normalized to mouse Ppia. The method, boiled down:
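Human APOE RNA, quantified by real-time RT-PCR with RTS3073 and normalized to mouse Ppia, was read in cortical brain and spinal cord 4 weeks post dosing. Dosing was a single ICV bolus of 300 μg per knock-in mouse; values are % of PBS-treated animals.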

In series [3] the test system is human APOE RNA. The experiment in a line: Activity in APOE C57BL/6NTac-Apoeem7250 knock-in mice, single ICV bolus, 8 weeks (Example 11). Format: in vivo. The following applies: single ICV bolus 300 μg, 8 weeks post treatment, normalized to mouse Ppia. The method, boiled down:
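Cortical and spinal cord human APOE RNA quantified by RT-qPCR 8 weeks after a single 300 μg ICV dose in knock-in mice, Ppia-normalized. Values are percent of levels in PBS-treated animals.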

Series [4] relates to human APOE RNA. The experiment in a line: Duration of action study in APOE C57BL/6NTac-Apoeem7250 knock-in mice (Example 16). Format: in vivo. The following applies: 300 μg ICV. Here is the method:
Modified oligonucleotides described above were tested in the APOE C57BL/6NTac-Apoeem7250 knock-in mouse model described above.
APOE C57BL/6NTac-Apoeem7250 knock-in mice were divided into groups of 2-4 mice each. Each mouse received a single intracerebroventricular (ICV) bolus of 300 μg of modified oligonucleotide. A group of 2-4 mice received a single ICV bolus with PBS as a negative control.
Mice were sacrificed at various timepoints as indicated in the table below and RNA was extracted from cortical brain tissue and spinal cord for quantitative real-time RT-PCR analysis of RNA expression of APOE using primer probe set RTS3073 (described herein above). APOE RNA levels were normalized to mouse Ppia. Mouse Ppia was amplified using primer probe set m_cyclo24 (described herein above). Results are presented as percent human APOE RNA relative to the amount of human APOE RNA in PBS treated animals, (% control). Each experiment is identified in separate tables below.

Strand notation (5' to 3'): a small letter for the sugar, then the base; units joined by * are phosphorothioate-linked, units joined directly phosphodiester-linked; [ ] holds rarer units or linkages, { } end groups; capitals alone tell only the bases. [ms] = mesyl phosphoramidate linkage; k = constrained ethyl (cEt); [5mC] = 5-methylcytosine; d = 2'-deoxy (DNA)

In the case of “1746799 (k[5mC]*dT[ms]kT*dG[ms]kG*dT[ms]dG[ms]dA[ms]dA[ms]dT*d[5mC]*dT*dT*dT*dA[ms]dT*kT*dA[ms]kA*kA; antisense) [Compound 1746799]”, the “APOE RNA (% UTC)” value with human APOE RNA [1] (5 nM) is given as 115 % UTC; in the series on human APOE RNA [1] (13 nM), 130 % UTC; with human APOE RNA [1] (33 nM), 153 % UTC; in the series on human APOE RNA [1] (82 nM), 125 % UTC; in the series on human APOE RNA [1] (205 nM), 106 % UTC; in the series on human APOE RNA [1] (512 nM), 84 % UTC. In addition, the “APOE RNA (% UTC)” value is 52 % UTC with human APOE RNA [1] (1,280 nM), 23 % UTC in the series with human APOE RNA [1] (3,200 nM), 24 % UTC in the series with human APOE RNA [1] (8,000 nM) and 33 % UTC in the series on human APOE RNA [1] (20,000 nM). This substance also gave an IC50 in the series with human APOE RNA [1] of 1.74 µM. The “APOE RNA (% control) Cortex” value with human APOE RNA [2] is 47 % control; in the series on human APOE RNA [3], 45 % control; in the series with human APOE RNA [4] (112 days post-dose) it was 46 % control; in the series with human APOE RNA [4] (140 days post-dose), 70 % control. For the same substance, the “APOE RNA (% control) Spinal Cord” value in the series on human APOE RNA [2] came out at 42 % control; with human APOE RNA [3], 39 % control; in the series with human APOE RNA [4] (112 days post-dose), 78 % control; in the series with human APOE RNA [4] (140 days post-dose), 66 % control.

Turning to “1747050 (k[5mC]*kT*kT*dG[ms]dG[ms]kT*dG[ms]dA[ms]dA[ms]dT*d[5mC]*dT*dT*dT*dA[ms]dT*kT*dA[ms]dA[ms]kA; antisense) [Compound 1747050]”, the “APOE RNA (% UTC)” value with human APOE RNA [1] (5 nM) is recorded as 182 % UTC; with human APOE RNA [1] (13 nM), 135 % UTC; in the series with human APOE RNA [1] (33 nM) it was 115 % UTC; in the series with human APOE RNA [1] (82 nM), 111 % UTC; with human APOE RNA [1] (205 nM), 110 % UTC; with human APOE RNA [1] (512 nM), 76 % UTC. Further, the “APOE RNA (% UTC)” value in the series with human APOE RNA [1] (1,280 nM) is 49 % UTC; in the series with human APOE RNA [1] (3,200 nM), 31 % UTC; in the series on human APOE RNA [1] (8,000 nM) it was 14 % UTC; in the series with human APOE RNA [1] (20,000 nM), 10 % UTC. In the series with human APOE RNA [1], this substance displayed an IC50 of 1.54 µM. For the same substance, the “APOE RNA (% control) Cortex” value in the series with human APOE RNA [2] is reported as 29 % control; with human APOE RNA [3], 36 % control; in the series on human APOE RNA [4] (112 days post-dose), 63 % control; in the series on human APOE RNA [4] (140 days post-dose), 74 % control. Further, the “APOE RNA (% control) Spinal Cord” value was determined as 45 % control in the series with human APOE RNA [2], 23 % control with human APOE RNA [3], 93 % control in the series with human APOE RNA [4] (112 days post-dose) and 86 % control in the series on human APOE RNA [4] (140 days post-dose).

Regarding “1746789 (k[5mC]*dT[ms]kT*dG[ms]kG*dT[ms]dG[ms]dA[ms]dA[ms]dT*d[5mC]*dT*dT*dT*dA[ms]dT*kT*kA*dA[ms]kA; antisense) [Compound 1746789]”, the “APOE RNA (% UTC)” value in the series with human APOE RNA [1] (5 nM) came out at 98 % UTC; in the series on human APOE RNA [1] (13 nM) it was 106 % UTC; in the series with human APOE RNA [1] (33 nM), 84 % UTC; in the series with human APOE RNA [1] (82 nM), 102 % UTC; in the series with human APOE RNA [1] (205 nM) it was 76 % UTC; in the series on human APOE RNA [1] (512 nM), 64 % UTC. Besides, the “APOE RNA (% UTC)” value with human APOE RNA [1] (1,280 nM) was 37 % UTC; in the series on human APOE RNA [1] (3,200 nM), 19 % UTC; in the series with human APOE RNA [1] (8,000 nM) it was 10 % UTC; in the series on human APOE RNA [1] (20,000 nM), 4 % UTC. Besides, the IC50 with human APOE RNA [1] came to 0.83 µM. The “APOE RNA (% control) Cortex” value with human APOE RNA [2] is reported as 60 % control; in the series on human APOE RNA [4] (112 days post-dose), 63 % control; in the series on human APOE RNA [4] (140 days post-dose), 75 % control. Further, the “APOE RNA (% control) Spinal Cord” value came to 41 % control in the series on human APOE RNA [2], 83 % control in the series with human APOE RNA [4] (112 days post-dose) and 80 % control with human APOE RNA [4] (140 days post-dose).

With “1746810 (k[5mC]*dT[ms]kT*dG[ms]dG[ms]kT*dG[ms]dA[ms]dA[ms]dT*d[5mC]*dT*dT*dT*dA[ms]dT*dT[ms]kA*kA*kA; antisense) [Compound 1746810]”, the “APOE RNA (% UTC)” value with human APOE RNA [1] (5 nM) is on record as 109 % UTC; in the series on human APOE RNA [1] (13 nM) it was 106 % UTC; with human APOE RNA [1] (33 nM), 95 % UTC; in the series on human APOE RNA [1] (82 nM), 77 % UTC; with human APOE RNA [1] (205 nM) it was 68 % UTC; in the series with human APOE RNA [1] (512 nM), 46 % UTC. Moreover, the “APOE RNA (% UTC)” value in the series with human APOE RNA [1] (1,280 nM) was determined as 36 % UTC; in the series on human APOE RNA [1] (3,200 nM), 13 % UTC; in the series with human APOE RNA [1] (8,000 nM), 8 % UTC; with human APOE RNA [1] (20,000 nM), 5 % UTC. Besides, in the series on human APOE RNA [1], the IC50 worked out at 0.49 µM. The entries for the “APOE RNA (% control) Cortex” value with human APOE RNA [2], in the series on human APOE RNA [4] (112 days post-dose) and in the series on human APOE RNA [4] (140 days post-dose) were 56 % control, 63 % control and 82 % control, respectively. The figures for the “APOE RNA (% control) Spinal Cord” value in the series on human APOE RNA [2], with human APOE RNA [4] (112 days post-dose) and in the series on human APOE RNA [4] (140 days post-dose) were 80 % control, 80 % control and 106 % control, respectively.

What is called IC50 is the concentration that gives 50% inhibition. Lower therefore signals inhibition by little substance.
